Tests used:
[1] = tested on: lambsquarters; assay: Test C pre-/postemergence herbicide test; format: in vivo, Chenopodium album; settings: preemergence
Outline: (§1)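 Emerged plants at the 1- to 4-leaf stage (2–18 cm), or freshly planted seeds, received test chemicals in a non-phytotoxic solvent mixture with surfactant. Response was visually scored against controls after 12 to 14 days in the greenhouse, on a 0 (no effect) to 100 (complete control) scale.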

[2] = tested on: rice; assay: Test C flooded paddy test; format: in vivo, Oryza sativa
Outline: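 Plants were grown to the 1- to 4-leaf stage (2–18 cm) and then treated postemergence, or grown to the 2-leaf stage for the flooded paddy test. They were held in a greenhouse for 12 to 14 days and then scored by eye against controls, where 0 is no effect and 100 is complete control.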

[3] = tested on: ducksalad; assay: Test C flooded paddy test; format: in vivo, Heteranthera limosa
[4] = tested on: common (oilseed) sunflower; assay: Test C pre-/postemergence herbicide test; format: in vivo, Helianthus annuus; settings: preemergence
Outline: as §1

[5] = tested on: corn; assay: Test C pre-/postemergence herbicide test; format: in vivo, Zea mays; settings: preemergence
Outline: as §1

[6] = tested on: yellow nutsedge; assay: Test C pre-/postemergence herbicide test; format: in vivo, Cyperus esculentus; settings: preemergence
Outline: as §1

[7] = tested on: Surinam grass; assay: Test C pre-/postemergence herbicide test; format: in vivo, Urochloa decumbens; settings: preemergence
Outline: as §1

[8] = tested on: smallflower umbrella sedge; assay: Test C flooded paddy test; format: in vivo, Cyperus difformis
[9] = tested on: velvetleaf; assay: Test A pre-/postemergence herbicide test; format: in vivo, Abutilon theophrasti
Outline: (§2)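 Both application timings were run together: directed soil spray over freshly planted seeds in sandy loam, and runoff spray onto 2–10 cm seedlings. Evaluation after ~10 days in greenhouse used a 0–100 visual scale versus untreated controls.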

[10] = tested on: woolly cupgrass; assay: Test C pre-/postemergence herbicide test; format: in vivo, Eriochloa villosa; settings: preemergence
Outline: as §1

[11] = tested on: giant foxtail; assay: Test C pre-/postemergence herbicide test; format: in vivo, Setaria faberi; settings: preemergence
Outline: as §1

[12] = tested on: morningglory; assay: Test A pre-/postemergence herbicide test; format: in vivo, Ipomoea spp.
Outline: as §2

[13] = tested on: morningglory; assay: Test C pre-/postemergence herbicide test; format: in vivo, Ipomoea coccinea; parameters: key to Plant response rating, Morningglory: 0 = no effect, 100 = complete control; settings: preemergence
Outline: as §1

[14] = 125 g ai/ha, scale 0 (no effect) to 100 (complete control), visual, 12 to 14 days
[15] = 500 g ai/ha, scale 0 to 100 (0 no effect, 100 complete control), visual, 12 to 14 days
[16] = 62 g ai/ha, scale 0 to 100 (0 no effect, 100 complete control)
[17] = 125 g ai/ha, scale 0 to 100 (0 no effect, 100 complete control)
[18] = 250 g ai/ha, scale of 0 to 100, 0 is no effect, 100 is complete control
[19] = 500 g ai/ha, visual rating after 12 to 14 days, scale 0 to 100 (0 no effect, 100 complete control)
[20] = Postemergence, 500 g ai/ha, 0 to 100 scale, 0 no effect, 100 complete control
[21] = Postemergence, 2000 g ai/ha, 0 to 100 scale, 0 no effect, 100 complete control
[22] = Preemergence, 2000 g ai/ha, visual rating, 0 to 100 scale (0 no effect, 100 complete control)
[23] = preemergence, 500 g ai/ha, visual injury, 0 to 100 scale (0 no effect, 100 complete control)

For CCc1nn(C(C)(C)C)cc1C(=O)Nc1cc(C(=O)N(CC)CC)ccc1F [Compound 223], the “Plant response rating, Lambsquarters” value ([1]; 62 g ai/ha, scale 0 to 100) was 95, the “Plant response rating, Lambsquarters” value [1, 14] was 100 and the “Plant response rating, Lambsquarters” value ([1]; 250 g ai/ha, scale 0-100) was 100. For the same compound, the “Plant response rating, Lambsquarters” value [1, 15] was 100, the “Rice plant response rating” value [2, 16] was 0 and the “Rice plant response rating” value [2, 17] was 0. For the same compound, the “Rice plant response rating” value [2, 18] was 45, the “Plant response rating, Rice” value [2, 19] was 75 and the “Ducksalad plant response rating” value [3, 16] was 0. For the same compound, the “Ducksalad plant response rating” value [3, 17] was 0, the “Ducksalad plant response rating” value [3, 18] was 25 and the “Plant response rating, Ducksalad” value [3, 19] was 55. The “Plant response rating, Sunflower” value ([4]; 62 g ai/ha, scale 0 to 100) was 0, the “Plant response rating, Sunflower” value ([4]; 250 g ai/ha, scale 0-100) was 0 and the “Plant response rating, Sunflower” value [4, 15] was 30. For the same compound, the “Plant response rating, Corn” value ([5]; 62 g ai/ha, scale 0 to 100) was 0, the “Plant response rating, Corn” value [5, 14] was 0 and the “Plant response rating, Corn” value ([5]; 250 g ai/ha, scale 0-100) was 5. The “Plant response rating, Corn” value [5, 15] was 50, the “Plant response rating, Nutsedge, Yellow” value ([6]; 62 g ai/ha, scale 0 to 100) was 0 and the “Plant response rating, Nutsedge, Yellow” value [6, 14] was 0. For the same compound, the “Plant response rating, Nutsedge, Yellow” value ([6]; 250 g ai/ha, scale 0-100) was 0, the “Plant response rating, Nutsedge, Yellow” value [6, 15] was 0 and the “Plant response rating, Surinam Grass” value ([7]; 62 g ai/ha, scale 0 to 100) was 50. For the same compound, the “Plant response rating, Surinam Grass” value ([7]; 250 g ai/ha, scale 0-100) was 70, the “Plant response rating, Surinam Grass” value [7, 15] was 85 and the “Sedge, Umbrella plant response rating” value [8, 16] was 0. For the same compound, the “Sedge, Umbrella plant response rating” value [8, 17] was 0, the “Sedge, Umbrella plant response rating” value [8, 18] was 65 and the “Plant response rating, Sedge, Umbrella” value [8, 19] was 85. For the same compound, the “Velvetleaf plant response rating” value [9, 20] was 40, the “Plant response rating, Velvetleaf” value [9, 21] was 35 and the “Velvetleaf plant response rating” value [9, 22] was 85. The “Velvetleaf plant response rating” value [9, 23] was 55, the “Plant response rating, Cupgrass, Woolly” value ([10]; 62 g ai/ha, scale 0 to 100) was 0 and the “Plant response rating, Cupgrass, Woolly” value [10, 14] was 10. For the same compound, the “Plant response rating, Cupgrass, Woolly” value [10, 15] was 80, the “Plant response rating, Foxtail, Giant” value ([11]; 62 g ai/ha, scale 0 to 100) was 40 and the “Plant response rating, Foxtail, Giant” value [11, 14] was 70. The “Plant response rating, Foxtail, Giant” value ([11]; 250 g ai/ha, scale 0-100) was 100, the “Plant response rating, Foxtail, Giant” value [11, 15] was 100 and the “Morningglory plant response rating” value [12, 20] was 50. For the same compound, the “Plant response rating, Morningglory” value [12, 21] was 60, the “Morningglory plant response rating” value [12, 22] was 55 and the “Morningglory plant response rating” value [12, 23] was 35. For the same compound, the “Plant response rating, Morningglory” value ([13]; 62 g ai/ha, scale 0 to 100) was 0, the “Plant response rating, Morningglory” value [13, 14] was 0 and the “Plant response rating, Morningglory” value ([13]; 250 g ai/ha, scale 0-100) was 5. The “Plant response rating, Morningglory” value [13, 15] was 100.

From patent US20060069132A1, “Azolecarboxamide herbicides” (priority 2004, published 2006)
